# In patent publication US20210255193A1, “LYSINE REACTIVE PROBES AND USES THEREOF” (The Scripps Research Institute, priority 2017, published 2021):
# Key:
# Assay in all cases: competitive isoTOP-ABPP
# Format in all cases: binding
# [1] = biological target: T1, PFKL 6-phosphofructokinase, liver type (Homo sapiens, UniProt P17858); settings: for isoTOP-ABPP reactivity ratio at lysine P17858_K677 / isoTOP-ABPP reactivity ratio at lysine P17858_K715 / isoTOP-ABPP reactivity ratio at lysine P17858_K315 / isoTOP-ABPP ratio (R) at liganded lysine P17858_K677 / isoTOP-ABPP ratio (R) at liganded lysine P17858_K715 / isoTOP-ABPP ratio (R) at liganded lysine P17858_K315: 50 uM, in vitro; for isoTOP-ABPP reactivity ratio at lysine P17858_K677 / isoTOP-ABPP reactivity ratio at lysine P17858_K715 / isoTOP-ABPP reactivity ratio at lysine P17858_K315: 231 sol; for isoTOP-ABPP ratio (R) at liganded lysine P17858_K677 / isoTOP-ABPP ratio (R) at liganded lysine P17858_K715 / isoTOP-ABPP ratio (R) at liganded lysine P17858_K315: sol, 231; for isoTOP-ABPP ratio, lysine P17858_K315 / isoTOP-ABPP ratio, lysine P17858_K677 / isoTOP-ABPP ratio, lysine P17858_K715: 50 uM_231_sol_in vitro; for isoTOP-ABPP ratio, lysine P17858_K677: possible other lysine P17858_K681; for isoTOP-ABPP ratio, lysine P17858_K715: possible other lysine P17858_K714
# T1 construct: isoTOP-ABPP experiments performed in cell lysates (in vitro); endogenous in cells; host or cells: soluble proteome of human cancer cell lines (MDA-MB-231; Ramos and Jurkat also prepared)
# T1 sequence (P17858 1-780): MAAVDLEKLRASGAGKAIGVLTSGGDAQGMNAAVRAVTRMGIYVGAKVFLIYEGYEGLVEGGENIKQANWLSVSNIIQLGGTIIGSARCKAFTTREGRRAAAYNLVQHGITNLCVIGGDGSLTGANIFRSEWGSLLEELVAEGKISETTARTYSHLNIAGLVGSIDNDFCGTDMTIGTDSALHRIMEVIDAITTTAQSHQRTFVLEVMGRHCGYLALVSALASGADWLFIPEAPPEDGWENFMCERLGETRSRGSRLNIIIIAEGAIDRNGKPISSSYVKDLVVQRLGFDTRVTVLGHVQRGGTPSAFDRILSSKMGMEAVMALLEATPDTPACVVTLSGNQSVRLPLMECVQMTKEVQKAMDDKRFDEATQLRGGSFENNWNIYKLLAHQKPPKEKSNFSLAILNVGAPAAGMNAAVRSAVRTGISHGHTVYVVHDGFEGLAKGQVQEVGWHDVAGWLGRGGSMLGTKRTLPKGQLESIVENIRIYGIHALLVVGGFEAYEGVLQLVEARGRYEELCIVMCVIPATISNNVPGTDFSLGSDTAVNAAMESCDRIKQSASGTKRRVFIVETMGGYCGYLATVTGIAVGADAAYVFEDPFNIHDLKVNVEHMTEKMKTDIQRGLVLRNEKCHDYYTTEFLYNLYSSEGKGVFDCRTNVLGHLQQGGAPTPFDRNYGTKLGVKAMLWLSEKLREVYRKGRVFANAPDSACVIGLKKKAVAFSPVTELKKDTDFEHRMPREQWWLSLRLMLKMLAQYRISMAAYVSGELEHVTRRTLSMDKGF
# How it was run: (§1)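 Lysine engagement is reported as R, the MS1 peak-area ratio of heavy-tagged DMSO to light-tagged compound samples. Final fragment concentrations were 50 μM for activated esters and 100 μM for guanidinylating agents; STP-alkyne probe 0.1 mM, 1 h.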
# OLA1 Obg-like ATPase 1 = biological target: T2, OLA1 Obg-like ATPase 1 (Homo sapiens, UniProt Q9NTK5); settings: for isoTOP-ABPP reactivity ratio at lysine Q9NTK5_K248 / isoTOP-ABPP ratio (R) at liganded lysine Q9NTK5_K248: 50 uM, in vitro; for isoTOP-ABPP reactivity ratio at lysine Q9NTK5_K248: 231 sol; for isoTOP-ABPP ratio (R) at liganded lysine Q9NTK5_K248: sol, 231; for isoTOP-ABPP ratio, lysine Q9NTK5_K248: 50 uM_231_sol_in vitro
# T2 construct: endogenous in cells; host or cells: MDA-MB-231 (soluble fraction of lysate)
# How it was run: as §1
# [2] = biological target: T3, FECH Ferrochelatase, mitochondrial (Homo sapiens, UniProt P22830); settings: for isoTOP-ABPP reactivity ratio at lysine P22830_K304 / isoTOP-ABPP ratio (R) at liganded lysine P22830_K304: 50 uM, in vitro; for isoTOP-ABPP reactivity ratio at lysine P22830_K304: 231 sol; for isoTOP-ABPP ratio (R) at liganded lysine P22830_K304: sol, 231; for isoTOP-ABPP ratio, lysine P22830_K304: 50 uM_231_sol_in vitro
# T3 construct: isoTOP-ABPP experiments performed in cell lysates (in vitro); endogenous in cells; host or cells: soluble proteome of human cancer cell lines (MDA-MB-231; Ramos and Jurkat also prepared)
# T3 sequence (P22830 55-423): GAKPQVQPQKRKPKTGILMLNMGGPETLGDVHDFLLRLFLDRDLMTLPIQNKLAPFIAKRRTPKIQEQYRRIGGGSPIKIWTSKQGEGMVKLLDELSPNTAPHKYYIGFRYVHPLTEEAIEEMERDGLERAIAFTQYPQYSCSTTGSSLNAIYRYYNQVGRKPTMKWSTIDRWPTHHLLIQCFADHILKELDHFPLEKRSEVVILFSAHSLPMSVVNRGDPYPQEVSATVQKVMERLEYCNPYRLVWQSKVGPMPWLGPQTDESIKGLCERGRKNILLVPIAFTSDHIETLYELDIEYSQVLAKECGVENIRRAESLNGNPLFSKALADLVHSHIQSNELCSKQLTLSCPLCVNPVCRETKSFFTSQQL
# How it was run: as §1
# [3] = biological target: T4, G6PD Glucose-6-phosphate 1-dehydrogenase (Homo sapiens, UniProt P11413); settings: for isoTOP-ABPP reactivity ratio at lysine P11413_K171 / isoTOP-ABPP ratio (R) at liganded lysine P11413_K171: 50 uM, in vitro; for isoTOP-ABPP reactivity ratio at lysine P11413_K171: 231 sol; for isoTOP-ABPP ratio (R) at liganded lysine P11413_K171: sol, 231; for isoTOP-ABPP ratio, lysine P11413_K171: 50 uM_231_sol_in vitro
# T4 construct: isoTOP-ABPP experiments performed in cell lysates (in vitro); endogenous in cells; host or cells: MDA-MB-231 soluble lysate
# How it was run: as §1
# T4 sequence (P11413 whole entry): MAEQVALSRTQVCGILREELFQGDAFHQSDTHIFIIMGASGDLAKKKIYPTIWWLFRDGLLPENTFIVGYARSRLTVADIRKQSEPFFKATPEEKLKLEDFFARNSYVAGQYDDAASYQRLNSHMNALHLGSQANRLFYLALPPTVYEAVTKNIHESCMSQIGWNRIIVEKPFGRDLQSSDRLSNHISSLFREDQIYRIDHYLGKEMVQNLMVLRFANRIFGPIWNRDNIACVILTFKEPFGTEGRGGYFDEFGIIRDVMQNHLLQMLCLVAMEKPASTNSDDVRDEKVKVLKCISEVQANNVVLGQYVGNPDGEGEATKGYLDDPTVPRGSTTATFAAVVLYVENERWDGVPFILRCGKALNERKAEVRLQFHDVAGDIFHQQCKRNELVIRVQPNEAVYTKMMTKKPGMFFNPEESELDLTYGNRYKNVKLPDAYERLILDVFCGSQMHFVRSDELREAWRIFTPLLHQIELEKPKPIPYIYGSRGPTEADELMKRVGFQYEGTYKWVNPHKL
Structure (SMILES),isoTOP-ABPP reactivity ratio at lysine P17858_K677 [1],isoTOP-ABPP reactivity ratio at lysine P17858_K715 [1],isoTOP-ABPP reactivity ratio at lysine Q9NTK5_K248 (OLA1 Obg-like ATPase 1),isoTOP-ABPP reactivity ratio at lysine P22830_K304 [2],isoTOP-ABPP reactivity ratio at lysine P11413_K171 [3],isoTOP-ABPP ratio (R) at liganded lysine P17858_K677 [1],isoTOP-ABPP ratio (R) at liganded lysine P17858_K715 [1],isoTOP-ABPP ratio (R) at liganded lysine Q9NTK5_K248 (OLA1 Obg-like ATPase 1),isoTOP-ABPP ratio (R) at liganded lysine P22830_K304 [2],isoTOP-ABPP ratio (R) at liganded lysine P11413_K171 [3],other results
"O=C(CN1C(=O)c2ccccc2C1=O)Oc1c(F)c(F)c(F)c(F)c1F [fragment 27, Pentafluorophenyl 2-(1,3-dioxoisoindolin-2-yl)acetate]",18.1,1.3,1.1,1.5,0.9,,,,,,
"CCn1cc(C(=O)Oc2c(F)c(F)c(F)c(F)c2F)c(=O)c2ccc(C)nc21 [fragment 28, Pentafluorophenyl 1-ethyl-7-methyl-4-oxo-1,4-dihydro-1,8-naphthyridine-3-carboxylate]",1.1,1.5,1.0,1.5,0.9,,,,,,
"O=C(CCc1cn(-c2ccccc2)nc1-c1ccccc1)Oc1ccc([N+](=O)[O-])cc1[N+](=O)[O-] [fragment 29, 2,4-Dinitrophenyl 3-(1,3-diphenyl-1H-pyrazol-4-yl)propanoate]",2.0,6.8,0.9,5.4,0.9,,,,,,isoTOP-ABPP reactivity ratio at lysine P17858_K315 [1]: 0.8
"O=C(Oc1ccc([N+](=O)[O-])cc1[N+](=O)[O-])c1cc(C(F)(F)F)cc(C(F)(F)F)c1 [fragment 31, 2,4-Dinitrophenyl 3,5-bis(trifluoromethyl)benzoate]",2.5,2.3,1.0,3.2,1.1,,,,,,
"COc1cc(CCC(=O)Oc2ccc([N+](=O)[O-])cc2[N+](=O)[O-])cc(OC)c1OC [fragment 33, 2,4-Dinitrophenyl 3-(3,4,5-trimethoxyphenyl)propanoate]",2.0,1.1,1.0,1.7,16.3,,,,,,isoTOP-ABPP reactivity ratio at lysine P17858_K315 [1]: 0.8
"O=C(CCc1coc2cc(F)ccc2c1=O)Oc1ccc([N+](=O)[O-])cc1[N+](=O)[O-] [fragment 36, 2,4-Dinitrophenyl 3-(7-fluoro-4-oxo-4H-chromen-3-yl)propanoate]",,,,,,20.0,20.0,0.8,2.0,1.0,
"O=C(CC12CC3CC(CC(C3)C1)C2)Oc1ccc([N+](=O)[O-])cc1[N+](=O)[O-] [fragment 38, 2,4-Dinitrophenyl 2-(adamantan-1-yl)acetate]",,,,,,1.3,20.0,0.9,1.8,0.9,isoTOP-ABPP ratio (R) at liganded lysine P17858_K315 [1]: 0.4
"O=C(Oc1ccc([N+](=O)[O-])cc1[N+](=O)[O-])c1ccc(Oc2ccccc2)cc1 [fragment 39, 2,4-Dinitrophenyl 4-phenoxybenzoate]",,,,,,1.3,0.6,0.9,1.3,1.1,
"O=C(Oc1ccc([N+](=O)[O-])cc1[N+](=O)[O-])C(c1ccccc1)(c1ccccc1)c1ccccc1 [fragment 42, 2,4-Dinitrophenyl 2,2,2-triphenylacetate]",,,,,,0.8,0.9,1.0,1.0,0.9,isoTOP-ABPP ratio (R) at liganded lysine P17858_K315 [1]: 0.7
"CC(=O)Oc1ccc([N+](=O)[O-])cc1[N+](=O)[O-] [fragment 43, 2,4-Dinitrophenyl acetate]",,,,,,3.2,1.3,1.0,1.3,1.0,
"N#Cc1ccc(C(=O)Oc2ccc([N+](=O)[O-])cc2[N+](=O)[O-])cc1 [fragment 44, 2,4-Dinitrophenyl 4-cyanobenzoate]",,,,,,,,,,,"isoTOP-ABPP ratio, lysine P17858_K315 [1]: 0.8; isoTOP-ABPP ratio, lysine P17858_K677 [1]: 1.7; isoTOP-ABPP ratio, lysine P17858_K715 [1]: 1.8; isoTOP-ABPP ratio, lysine Q9NTK5_K248 (OLA1 Obg-like ATPase 1): 1.1; isoTOP-ABPP ratio, lysine P22830_K304 [2]: 1.1; isoTOP-ABPP ratio, lysine P11413_K171 [3]: 1.3"
"O=C(CCc1ccc2c(c1)OCO2)Oc1ccc([N+](=O)[O-])cc1[N+](=O)[O-] [fragment 45, 2,4-Dinitrophenyl 3-(benzo[d][1,3]dioxol-5-yl)propanoate]",,,,,,,,,,,"isoTOP-ABPP ratio, lysine P17858_K315 [1]: 1.8; isoTOP-ABPP ratio, lysine P17858_K677 [1]: 2.9; isoTOP-ABPP ratio, lysine P17858_K715 [1]: 10.9; isoTOP-ABPP ratio, lysine Q9NTK5_K248 (OLA1 Obg-like ATPase 1): 1.0; isoTOP-ABPP ratio, lysine P22830_K304 [2]: 1.4; isoTOP-ABPP ratio, lysine P11413_K171 [3]: 1.1"
"O=C(ON1C(=O)CCC1=O)c1cc(C(F)(F)F)cc(C(F)(F)F)c1 [fragment 46, 3,5-Bis(trifluoromethyl)benzoic acid NHS ester]",,,,,,,,,,,"isoTOP-ABPP ratio, lysine P17858_K315 [1]: 0.6; isoTOP-ABPP ratio, lysine P17858_K677 [1]: 1.4; isoTOP-ABPP ratio, lysine P17858_K715 [1]: 0.8; isoTOP-ABPP ratio, lysine Q9NTK5_K248 (OLA1 Obg-like ATPase 1): 1.2; isoTOP-ABPP ratio, lysine P22830_K304 [2]: 0.9; isoTOP-ABPP ratio, lysine P11413_K171 [3]: 0.9"
"O=C(Oc1c(F)c(F)c(C(F)(F)F)c(F)c1F)c1cc(C(F)(F)F)cc(C(F)(F)F)c1 [fragment 47, 2,3,5,6-Tetrafluoro-4-(trifluoromethyl)phenyl 3,5-bis(trifluoromethyl)benzoate]",,,,,,,,,,,"isoTOP-ABPP ratio, lysine P17858_K315 [1]: 1.0; isoTOP-ABPP ratio, lysine P17858_K677 [1]: 1.0; isoTOP-ABPP ratio, lysine P17858_K715 [1]: 1.0; isoTOP-ABPP ratio, lysine Q9NTK5_K248 (OLA1 Obg-like ATPase 1): 1.2; isoTOP-ABPP ratio, lysine P22830_K304 [2]: 2.2; isoTOP-ABPP ratio, lysine P11413_K171 [3]: 1.0"
